Laboratory results taken from ChEMBL document CHEMBL1201862, “PubChem BioAssay data set” (2004).
Active and inactive are the calls of the source.

Assays:
[1] = HIV-1 AD8 envelope cell-cell fusion blockers – cherry-pick, dose response (AID 652062); format: functional, cell-based;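 also: luciferase signal from cell-cell fusion driven by HIV-1 clade B AD8 Env; potency is for inhibitors of fusion seen as a drop in luminescence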
[2] = off-target signal loss in HeLa-CEM21 co-culture – HeLa F-luc CTL cells, cherry-picked, counter-screen for HIV-1 Env fusion inhibitor project, dose response (AID 652040); format: functional, cell-based;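 also: potency for signal decrease marking cytotoxic or nonspecific inhibition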
[3] = NIH-3T3 fibroblast cytotoxicity, dose response, cytotoxicity control, cell-based, fluorescence, Alamar Blue, secondary assay (AID 2327); format: functional;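 also: NIH-3T3 mouse fibroblasts cultured with fluconazole at 8 µg/mL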
[4] = fluconazole-exposed Candida albicans growth modulators – fluorescence, retest, confirmation (AID 2467); format: functional, cell-based
[5] = biological target: Dual specificity tyrosine-phosphorylation-regulated kinase 1A (Rattus norvegicus, UniProt Q63470); format: biochemical, Homo sapiens
[6] = HIV-1 Vif–A3G interaction blockers – biochemical, TR-FRET, GST-Vif 1-94, biotin-A3G peptide, dose response retest, primary screen (AID 1117319); format: functional;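 also: TR-FRET signal of purified GST-Vif binding a biotinylated A3G peptide; inhibitors lower the FRET signal by blocking Vif and A3G binding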
[7] = viability loss in Vero cells – cytotoxicity control for Vif-APOBEC3G degradation inhibitor project, dose response (AID 1117358); format: functional; settings: Vero
[8] = biological target: T1, Long-chain-fatty-acid--AMP ligase FadD28 (Mycobacterium tuberculosis, UniProt P9WQ59); test: Fluorescence polarization aasay to screen for inhibitors that compete for the binding of FadD28 to a bisubstrate Measured in Biochemical System Using Plate Reader - 2147-01_Inhibitor_Dose_CherryPick_Activity.; format: functional, Mycobacterium tuberculosis H37Rv
T1 sequence (P9WQ59 whole entry): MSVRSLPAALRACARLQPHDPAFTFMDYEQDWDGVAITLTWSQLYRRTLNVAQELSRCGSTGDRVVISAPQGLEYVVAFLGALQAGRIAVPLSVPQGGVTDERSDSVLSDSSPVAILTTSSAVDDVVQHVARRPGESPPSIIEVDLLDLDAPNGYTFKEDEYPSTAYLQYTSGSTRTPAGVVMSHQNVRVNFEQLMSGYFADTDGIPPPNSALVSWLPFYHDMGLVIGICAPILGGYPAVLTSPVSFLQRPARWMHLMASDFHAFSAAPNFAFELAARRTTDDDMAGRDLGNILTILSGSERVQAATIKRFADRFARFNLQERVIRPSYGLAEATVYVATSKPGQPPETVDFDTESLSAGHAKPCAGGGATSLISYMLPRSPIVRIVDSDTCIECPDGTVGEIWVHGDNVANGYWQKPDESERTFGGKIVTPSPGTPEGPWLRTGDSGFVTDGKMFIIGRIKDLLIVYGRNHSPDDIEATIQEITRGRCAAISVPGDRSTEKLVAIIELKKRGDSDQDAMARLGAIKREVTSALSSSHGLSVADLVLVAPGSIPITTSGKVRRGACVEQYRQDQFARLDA

Cysteine protease ATG4B = biological target: T2, Cysteine protease ATG4B (Homo sapiens, UniProt Q9Y4P1); format: functional;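 also: Fluorescence-based dose-response confirmation assay measuring inhibition of ATG4B activity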
T2 sequence (Q9Y4P1 whole entry): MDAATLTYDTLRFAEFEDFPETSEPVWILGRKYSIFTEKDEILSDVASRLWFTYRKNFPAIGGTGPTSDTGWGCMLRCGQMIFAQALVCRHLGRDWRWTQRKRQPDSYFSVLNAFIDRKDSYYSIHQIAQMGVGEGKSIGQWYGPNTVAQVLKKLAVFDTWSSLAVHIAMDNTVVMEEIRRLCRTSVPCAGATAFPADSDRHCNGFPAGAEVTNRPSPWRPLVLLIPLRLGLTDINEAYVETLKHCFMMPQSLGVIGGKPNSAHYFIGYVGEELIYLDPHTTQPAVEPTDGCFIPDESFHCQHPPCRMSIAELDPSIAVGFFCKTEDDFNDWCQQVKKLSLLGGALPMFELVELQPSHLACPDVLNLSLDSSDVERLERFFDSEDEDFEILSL

Phospholipase A2 = Phospholipase A2 (Homo sapiens, UniProt P04054); format: functional;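 also: confirmatory dose-response counterscreen on phospholipase A2, testing hits that came from an ultra-high-throughput screen for ATG4B inhibitors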
Phospholipase A2, sequence (P04054 whole entry): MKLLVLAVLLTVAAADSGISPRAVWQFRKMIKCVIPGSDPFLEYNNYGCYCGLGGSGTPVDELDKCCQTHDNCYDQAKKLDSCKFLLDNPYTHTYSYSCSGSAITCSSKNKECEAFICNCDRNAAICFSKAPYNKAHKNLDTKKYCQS

[9] = viability of PTEN-deleted HCT116 cells – cell-based, HCT116 PTEN knockout, dose response (AID 1047); format: functional;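 also: HCT116 colon tumor cells with PTEN knocked out; cells exposed to compound for 60 hours before readout; potency for loss of cell viability measured by luminescence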
[10] = Fluorescence-based cell-based high throughput dose response assay for inhibitors of the interaction of nucleotide-binding oligomerization domain containing 2 (NOD2) and the receptor-interacting serine-threonine kinase 2 (RIPK2).; format: functional; settings: Homo sapiens
[11] = viability of HCT116 lacking mutant beta-catenin – cell-based, human colon tumor, dose response (AID 1045); format: functional;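 also: HCT116 colon tumor cells with beta catenin knocked out; cells exposed to compound for 60 hours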
[12] = biological target: T3, Heat shock factor protein 1 (Mus musculus, UniProt P38532); test: enhancement of HSF1-driven luciferase signal – cell-based, NIH3T3, luminescence, dose retest, confirmation (AID 435004); format: functional;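 also: stress induced by proteasome inhibitor MG132 added 30 min after compound; luciferase reporter driven by HSF1 response element in NIH3T3 cells; actives raise luminescence as potentiators of the MG132 stress response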
T3 sequence (P38532 whole entry): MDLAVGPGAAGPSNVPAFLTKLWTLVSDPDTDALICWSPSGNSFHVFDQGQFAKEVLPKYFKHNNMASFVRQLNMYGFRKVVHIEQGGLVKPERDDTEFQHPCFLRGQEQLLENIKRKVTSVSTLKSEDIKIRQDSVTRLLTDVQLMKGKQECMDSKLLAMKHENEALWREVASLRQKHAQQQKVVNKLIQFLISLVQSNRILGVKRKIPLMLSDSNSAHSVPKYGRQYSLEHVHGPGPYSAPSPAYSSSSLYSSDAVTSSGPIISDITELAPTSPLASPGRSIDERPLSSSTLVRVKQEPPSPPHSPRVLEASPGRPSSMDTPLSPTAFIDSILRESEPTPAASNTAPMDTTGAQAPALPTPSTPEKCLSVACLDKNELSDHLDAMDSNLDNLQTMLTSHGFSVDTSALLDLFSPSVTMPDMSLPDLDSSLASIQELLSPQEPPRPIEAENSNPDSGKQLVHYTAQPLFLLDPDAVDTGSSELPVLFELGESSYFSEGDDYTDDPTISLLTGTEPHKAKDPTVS

[13] = Luminescence Cell-Based Dose Retest to Confirm Inhibitors of Cancer Stem Cells. [Related pubchem assays (depositor defined):AID2717, AID2721]; format: functional; settings: Homo sapiens
Streptococcus = test: GAS UMAA2166 growth inhibition – luminescence, BacTiterGlo, counter-screen for streptokinase expression inhibitor project, dose response (AID 1915); format: functional, organism-based;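 also: potency for reduction of bacterial viability or growth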
[14] = biological target: Disintegrin and metalloproteinase domain-containing protein 17 (Homo sapiens, UniProt P78536); test: inhibition of ADAM17 substrate cleavage – biochemical, quenched FRET substrate, counter-screen for ADAM10 exosite inhibitor project, dose response (AID 743253)
Disintegrin and metalloproteinase domain-containing protein 17, sequence (P78536 whole entry, the tested form may be a part): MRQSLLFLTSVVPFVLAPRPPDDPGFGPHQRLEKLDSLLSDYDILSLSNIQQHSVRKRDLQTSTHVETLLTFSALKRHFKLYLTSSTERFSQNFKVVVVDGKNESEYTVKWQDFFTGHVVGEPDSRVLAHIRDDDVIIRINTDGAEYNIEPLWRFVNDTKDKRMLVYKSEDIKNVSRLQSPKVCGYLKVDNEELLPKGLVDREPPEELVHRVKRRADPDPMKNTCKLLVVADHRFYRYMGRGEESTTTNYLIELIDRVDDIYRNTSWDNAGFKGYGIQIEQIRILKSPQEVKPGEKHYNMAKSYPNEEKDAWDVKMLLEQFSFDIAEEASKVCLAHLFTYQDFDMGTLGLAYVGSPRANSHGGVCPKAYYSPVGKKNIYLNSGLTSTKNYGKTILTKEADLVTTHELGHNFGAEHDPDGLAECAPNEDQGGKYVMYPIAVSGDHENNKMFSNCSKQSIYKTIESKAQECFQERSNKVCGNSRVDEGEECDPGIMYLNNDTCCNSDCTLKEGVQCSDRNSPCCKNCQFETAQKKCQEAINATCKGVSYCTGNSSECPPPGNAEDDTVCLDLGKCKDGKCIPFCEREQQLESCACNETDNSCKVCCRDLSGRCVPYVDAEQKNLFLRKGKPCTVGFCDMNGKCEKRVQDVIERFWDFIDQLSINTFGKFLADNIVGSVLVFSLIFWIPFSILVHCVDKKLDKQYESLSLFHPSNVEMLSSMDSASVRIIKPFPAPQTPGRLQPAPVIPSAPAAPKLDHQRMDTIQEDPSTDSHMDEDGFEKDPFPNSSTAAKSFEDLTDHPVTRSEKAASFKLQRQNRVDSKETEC

[15] = Trypanosoma cruzi growth suppression in host cells – NIH3T3 host cells, beta-gal luminescence, confirmation (AID 2044); format: functional, cell-based;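 also: intracellular parasites grown in NIH/3T3 mouse fibroblasts as host cells; luminescent beta-galactosidase reporter signal from transgenic T. cruzi replicating inside host cells; inhibitors lower the luminescence signal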
Streptokinase A = biological target: T4, Streptokinase A (Streptococcus pyogenes serotype M1, UniProt P10520); test: viability-normalized secreted streptokinase activity reduction – plasminogen activation absorbance, OD405, dose response (AID 1914); format: functional, Streptococcus pyogenes M1 GAS;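 also: secreted streptokinase activity via plasminogen activation per viability signal from cell pellet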
T4 sequence (P10520 whole entry): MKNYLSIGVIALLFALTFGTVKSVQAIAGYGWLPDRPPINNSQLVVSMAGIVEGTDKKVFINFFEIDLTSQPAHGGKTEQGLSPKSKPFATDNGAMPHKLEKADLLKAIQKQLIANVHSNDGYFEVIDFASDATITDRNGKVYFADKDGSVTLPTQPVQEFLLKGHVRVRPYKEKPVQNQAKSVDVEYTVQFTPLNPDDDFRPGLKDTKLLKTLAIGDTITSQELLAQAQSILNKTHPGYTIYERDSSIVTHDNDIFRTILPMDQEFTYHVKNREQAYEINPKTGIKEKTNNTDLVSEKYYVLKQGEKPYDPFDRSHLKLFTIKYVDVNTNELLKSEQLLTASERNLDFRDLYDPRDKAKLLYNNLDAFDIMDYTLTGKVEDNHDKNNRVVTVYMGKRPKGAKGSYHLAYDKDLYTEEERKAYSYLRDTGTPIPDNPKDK

[16] = system: Streptococcus sp. 'group A'; test: Streptococcus pyogenes SK(-)GAS viability under kanamycin – luminescence, BacTiterGlo, confirmation, counter-screen for streptokinase expression inhibitor project, dose response (AID 1900); format: functional, organism-based
[17] = NIH3T3 cell viability loss – ATP luminescence, mouse fibroblasts, counter-screen, dose response (AID 2010); format: functional, cell-based;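 also: cells exposed to compound for about 90 hours before reading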
[18] = intracellular Trypanosoma cruzi inhibitors in host cells – cell-based, plate reader, cherry-pick samples, set 3, dose response (AID 651818); format: functional;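 also: compounds incubated with infected cells for about four days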
[19] = blockers of HIV-1 envelope-mediated cell-cell fusion – cherry-pick, dose response (AID 652057); format: functional, cell-based
[20] = biological target: Endoplasmic reticulum aminopeptidase 1 (Homo sapiens, UniProt Q9NZ08); test: inhibition of human ERAP1 enzyme activity – biochemical, cherry-pick, set 2, plate reader, dose response (AID 743314)
Endoplasmic reticulum aminopeptidase 1, sequence (Q9NZ08 whole entry): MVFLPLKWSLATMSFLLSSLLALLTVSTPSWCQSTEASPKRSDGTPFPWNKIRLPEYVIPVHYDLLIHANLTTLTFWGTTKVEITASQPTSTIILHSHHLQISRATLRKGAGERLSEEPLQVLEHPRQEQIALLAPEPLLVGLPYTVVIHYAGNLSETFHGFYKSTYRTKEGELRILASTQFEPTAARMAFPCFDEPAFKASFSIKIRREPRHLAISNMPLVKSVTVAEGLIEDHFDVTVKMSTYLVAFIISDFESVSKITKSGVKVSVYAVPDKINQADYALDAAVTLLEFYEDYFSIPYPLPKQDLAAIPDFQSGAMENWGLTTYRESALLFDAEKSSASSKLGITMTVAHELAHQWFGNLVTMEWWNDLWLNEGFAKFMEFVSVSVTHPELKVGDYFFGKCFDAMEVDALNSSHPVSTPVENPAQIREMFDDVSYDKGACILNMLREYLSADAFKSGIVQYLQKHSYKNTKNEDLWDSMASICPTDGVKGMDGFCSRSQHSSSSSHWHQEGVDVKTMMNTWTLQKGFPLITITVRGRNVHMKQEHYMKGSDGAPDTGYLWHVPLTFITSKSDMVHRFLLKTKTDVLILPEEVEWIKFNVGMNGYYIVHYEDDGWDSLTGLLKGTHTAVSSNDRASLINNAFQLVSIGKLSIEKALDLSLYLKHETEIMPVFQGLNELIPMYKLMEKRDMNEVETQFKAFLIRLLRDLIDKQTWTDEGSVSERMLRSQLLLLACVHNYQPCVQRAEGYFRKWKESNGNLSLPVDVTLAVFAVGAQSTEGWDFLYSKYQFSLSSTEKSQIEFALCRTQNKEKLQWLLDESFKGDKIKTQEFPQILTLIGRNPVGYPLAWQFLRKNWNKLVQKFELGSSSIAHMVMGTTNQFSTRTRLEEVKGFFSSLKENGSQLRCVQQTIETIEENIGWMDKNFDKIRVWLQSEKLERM

cells [21] = format: functional, cell-based
cells [22] = format: functional, cell-based; remark: listed apart in the source

O=C1c2cccc(OCc3ccc(F)cc3)c2CCN1Cc1ccccc1
AC50 [1]: 10.1 µM (active) | AC50 [2]: 4.11 µM (active)

Nc1nn2c(O)cc(-c3ccccc3)nc2c1N=Nc1ccc(S(N)(=O)=O)cc1
EC50 [3]: > 160 µM (inactive) | EC50 [4]: > 38 µM (not active) | AC50 [5]: 1.3 µM (active)

O=C(c1ccc(S(=O)(=O)N2CCOCC2)cc1)N1CCN(c2cccc(Cl)c2)CC1
IC50 [6]: > 100 µM (active)

COC(=O)c1cnn2c(C)c(Cc3cccc(F)c3)c(C)nc12
CC50 [7]: > 40 µM (active)

CCOC(=O)N1CCC(N2C(=O)c3ccccc3C2Nc2ccccc2)CC1 (stereo not given)
IC50 [6]: > 100 µM (active)

O=C(O)c1cc(Br)ccc1NN=C1CCCCC1
AC50 [8]: > 100 µM (inactive) | IC50 (Cysteine protease ATG4B): 13.4 µM (active) | IC50 (Phospholipase A2): 9.4 µM (active)

Cc1cc(SC#N)cc(C)c1NC(=O)CCl
EC50 [9]: 19.8 µM (active) | IC50 [10]: 11.1 µM (inactive) | EC50 [11]: 17.4 µM (active) | EC50 [12]: 5.97 µM (active)

CCC(=O)Nc1ccc(C(=O)Cn2ncc(Cl)c(Cl)c2=O)cc1
IC50 [10]: 6.53 µM (active) | AC50 [13]: 5.04 µM (active)

Cc1ccc(CN(C(=O)Cn2nnc3ccccc32)C(C(=O)NCc2ccco2)c2cccs2)cc1 (stereo not given)
CC50 [7]: > 40 µM (active)

COc1ccc(CCN2C(=O)c3cccnc3C2=O)cc1OC
IC50 [6]: > 100 µM (active)

O=[N+]([O-])c1ccc(S(=O)(=O)Nc2ccc(-c3csc(-c4ccccc4)n3)cc2)cc1
EC50 (Streptococcus): 8.29 µM (active) | IC50 [14]: > 69.5 µM (inactive) | EC50 [15]: 0.118 µM (active) | EC50 (Streptokinase A): > 150 µM (not active) | EC50 [16]: 3.77 µM (active) | EC50 [17]: > 60 µM (not active) | AC50 [13]: 2.33 µM (active)

N#Cc1cn(CCOc2ccccc2F)c2ccccc12
CC50 [7]: > 40 µM (active)

C[C@H]1CN([C@@H](C)CO)C(=O)Cc2cc(NS(=O)(=O)c3ccc(Cl)cc3)ccc2O[C@H]1CN(C)CC1CCCCC1
AC50 [18]: 5.05 µM (active)

C[C@@H]1CN([C@H](C)CO)C(=O)c2cccc(NC(=O)c3cnccn3)c2O[C@@H]1CN(C)Cc1ccc(C(=O)Nc2ccccc2N)cc1
AC50 [18]: 3.06 µM (active)

C[C@@H]1CCCCO[C@@H](CN(C)Cc2ccc(C(=O)Nc3ccccc3N)cc2)[C@@H](C)CN([C@H](C)CO)C(=O)c2cc(NC(=O)Nc3ccc(C(F)(F)F)cc3)ccc2O1
AC50 [18]: 0.554 µM (active)

C[C@@H]1CN([C@@H](C)CO)C(=O)Cc2cc(NC(=O)Nc3ccc(C(F)(F)F)cc3)ccc2O[C@@H]1CN(C)S(=O)(=O)c1cccs1
AC50 [18]: 3.54 µM (active)

Cc1noc(C)c1S(=O)(=O)N(C)C[C@@H]1Oc2ccc(NC(=O)Cc3ccccc3)cc2CC(=O)N([C@H](C)CO)C[C@@H]1C
AC50 [1]: 2.92 µM (active) | AC50 [19]: < 0.26 µM (active)

O=C(NCc1ccccc1)[C@@H]1[C@@H](CO)[C@@H]2Cn3c(ccc(/C=C/c4ccccc4)c3=O)[C@H]1N2CC1CC1
AC50 [20]: 11.1 µM (active)

CN1[C@H](C(=O)NC2CCC2)[C@@H](CO)[C@@H]2Cn3c(ccc(/C=C/c4ccccc4)c3=O)[C@@H]21
AC50 [20]: 18 µM (active)

O=C([C@@H]1[C@@H](CO)[C@@H]2Cn3c(ccc(/C=C/c4ccccc4)c3=O)[C@@H]2N1CC1CC1)N1CCOCC1
AC50 [20]: 13.7 µM (active)

CCN1[C@@H]2c3ccc(/C=C/c4ccccc4)c(=O)n3C[C@H]1[C@H](CO)[C@H]2C(=O)N1CCOCC1
AC50 [20]: 6.11 µM (active)

C[C@@H]1O[C@@H](OC[C@H]2O[C@@H](Oc3c(-c4ccc(O)cc4)oc4cc(O)cc(O)c4c3=O)[C@H](O)[C@@H](O)[C@@H]2O)[C@H](O)[C@H](O)[C@H]1O [NICOTIFLOROSIDE]
EC50 (cells [21]): > 350 µM (not active) | AC50 [5]: 7.78 µM (active) | EC50 (cells [22]): > 350 µM (not active)
